One test deals with T1, USP7 (Homo sapiens, UniProt Q93009).
T1 construct: USP7, full-length, native C-Terminus, 0.2 nM
In words: Ub-Rho110 DUB assay, Table 2, USP7. In kind it is biochemical.

Test [1] has as its system U2Os p53 WT osteosarcoma cells. Put plainly: Incucyte cell proliferation and caspase activity, U2Os (FIG. 11, 16). Format: cell-based. The note with it: U2Os p53 WT compared to SaOs p53 null cells; compared to 89. The protocol: 2,500-5,000 cells were seeded in 1-well of a 96-well plate (Corning; 3904). The following day, the media was changed from normal (10%) to low serum (0.5%) containing vehicle (DMSO) or compounds. 16-24 h later FBS was added to each well to bring serum levels back to normal (10%). Cells were then allowed to grow for 2 days. All treatments were done in triplicate. The day after cells were seeded, the media was changed to low serum media containing 2 μM CellEvent Caspase 3/7 reagent (Life Technologies; C10423) and compounds. The plates were placed in an IncuCyte (Essen Bioscience, Inc.) live cell imager and scanning was started 15-20 mins after. IncuCyte™ ZOOM facilitates live-cell monitoring via customized imaging protocols. Images were taken every 2 h for at least 3 days, using a 10× objective. Phase contrast was used to measure cell confluency/density while green fluorescence was used to measure caspase activity. The images were analyzed using IncuCyte software (Basic Analysis parameters) and a ratio of caspase activity to cell density was determined.

A further test addresses T2, USP5 (Homo sapiens, UniProt P45974).
T2 sequence (P45974 1-858): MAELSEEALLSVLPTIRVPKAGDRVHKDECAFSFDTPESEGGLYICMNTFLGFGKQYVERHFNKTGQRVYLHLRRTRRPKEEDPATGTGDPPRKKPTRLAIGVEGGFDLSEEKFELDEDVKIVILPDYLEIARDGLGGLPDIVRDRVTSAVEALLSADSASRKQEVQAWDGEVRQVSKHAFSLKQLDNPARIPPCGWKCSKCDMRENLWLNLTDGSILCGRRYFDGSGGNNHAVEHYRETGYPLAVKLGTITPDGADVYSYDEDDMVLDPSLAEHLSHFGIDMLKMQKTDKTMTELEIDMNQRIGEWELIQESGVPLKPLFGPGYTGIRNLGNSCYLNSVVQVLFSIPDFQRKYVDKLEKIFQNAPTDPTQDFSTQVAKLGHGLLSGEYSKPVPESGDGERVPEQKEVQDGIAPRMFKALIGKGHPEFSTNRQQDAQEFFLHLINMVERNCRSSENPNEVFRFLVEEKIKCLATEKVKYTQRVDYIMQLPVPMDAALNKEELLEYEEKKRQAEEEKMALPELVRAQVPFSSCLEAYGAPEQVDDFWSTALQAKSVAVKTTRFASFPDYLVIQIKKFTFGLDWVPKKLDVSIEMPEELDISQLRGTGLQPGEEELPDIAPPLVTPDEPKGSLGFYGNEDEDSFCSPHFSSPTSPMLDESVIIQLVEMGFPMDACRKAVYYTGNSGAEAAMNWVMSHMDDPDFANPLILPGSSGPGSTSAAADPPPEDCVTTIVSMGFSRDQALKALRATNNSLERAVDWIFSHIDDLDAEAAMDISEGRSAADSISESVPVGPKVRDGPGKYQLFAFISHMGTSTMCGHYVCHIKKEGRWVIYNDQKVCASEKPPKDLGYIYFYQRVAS
Put plainly: Ub-Rho110 DUB assay, Table 2, USP5.

The term IC50 denotes the concentration needed to halve the response being measured. The low end stands for inhibition by little substance, the high end for a need for much substance.

T1 sequence (Q93009 whole entry): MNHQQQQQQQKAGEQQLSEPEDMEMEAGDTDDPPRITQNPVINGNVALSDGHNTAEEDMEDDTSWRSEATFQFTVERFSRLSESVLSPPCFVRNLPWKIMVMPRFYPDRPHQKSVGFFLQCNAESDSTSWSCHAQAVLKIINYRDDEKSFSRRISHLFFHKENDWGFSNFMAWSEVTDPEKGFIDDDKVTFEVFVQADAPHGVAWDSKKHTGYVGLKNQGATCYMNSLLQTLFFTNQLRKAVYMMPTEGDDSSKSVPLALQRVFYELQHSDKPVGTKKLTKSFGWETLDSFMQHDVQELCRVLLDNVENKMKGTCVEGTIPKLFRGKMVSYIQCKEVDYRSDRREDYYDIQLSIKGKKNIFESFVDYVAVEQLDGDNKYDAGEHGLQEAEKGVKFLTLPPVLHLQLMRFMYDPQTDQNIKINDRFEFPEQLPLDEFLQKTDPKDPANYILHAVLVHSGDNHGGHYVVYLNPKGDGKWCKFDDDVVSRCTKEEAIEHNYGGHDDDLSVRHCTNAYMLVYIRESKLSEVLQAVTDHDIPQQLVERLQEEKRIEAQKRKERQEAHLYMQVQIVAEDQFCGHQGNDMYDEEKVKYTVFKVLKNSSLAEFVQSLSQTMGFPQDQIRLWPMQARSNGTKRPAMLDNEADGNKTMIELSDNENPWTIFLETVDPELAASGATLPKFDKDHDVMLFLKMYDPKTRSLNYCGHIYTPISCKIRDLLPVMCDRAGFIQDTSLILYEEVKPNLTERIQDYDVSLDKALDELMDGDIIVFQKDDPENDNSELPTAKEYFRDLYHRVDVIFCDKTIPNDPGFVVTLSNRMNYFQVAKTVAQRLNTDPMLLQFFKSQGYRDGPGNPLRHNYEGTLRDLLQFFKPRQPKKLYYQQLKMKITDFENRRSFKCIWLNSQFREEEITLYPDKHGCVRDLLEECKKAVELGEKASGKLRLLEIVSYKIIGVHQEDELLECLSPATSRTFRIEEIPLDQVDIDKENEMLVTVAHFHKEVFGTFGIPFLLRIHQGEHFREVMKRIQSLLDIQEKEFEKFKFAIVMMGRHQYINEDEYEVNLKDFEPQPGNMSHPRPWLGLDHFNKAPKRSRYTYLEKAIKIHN
Procedure for USP7: Biochemical USP7 assays using Ubiquitin-Rho110 as a substrate: The final assay conditions were as follows: The Reaction Buffer consisted of: 50 mM Tris (pH 7.5), 0.01% (v/v) Triton X-100, 2.5 mM Dithiothreitol, 0.1% (w/v) bovine gamma globulin (Sigma cat #G5009-25G); USP7, full-length, native C-Terminus, 0.2 nM; the substrate, Ubiquitin-Rho110 (Boston Biochem cat #U-555), 1 uM. Reactions were carried out for 1 hour at room temperature, in black 20 μL volume polystyrene ProxiPlate 384 F Plus® (PerkinElmer cat #6008260).
Test compounds, including a control USP7 inhibitor (Ub-aldehyde, Boston Biochem cat #U-201) were serially diluted in DMSO, in 384 well clear V-bottom polypropylene plates (Greiner cat #781280). Compounds in DMSO were diluted 10-fold into Reaction Buffer, to achieve 3-fold the final desired concentration. The substrate, Ubiquitin-Rho110 (Boston Biochem cat #U-555), was prepared at 3 μM (3-fold the final concentration) and 5 ul was dispensed into the reaction plate. 5 ul of the compounds (diluted in Reaction Buffer at 3-fold the final concentration) were transferred to the reaction plate. 5 ul of 0.6 nM USP7 (diluted in Reaction Buffer at 3-fold the final concentration) was transferred to the reaction plate to initiate the reaction. After 1 hour incubation at room temperature the reaction was quenched by the addition of 5 ul of 400 mM acetic acid. The enzymatic product was measured by quantifying the fluorescence signal of cleaved Rhodamine-110 using excitation at 485 nm and emission at 535 nm. When pre-incubation of USP7 with compounds was required, the order of addition of reagents was modified to pre-mix the compounds with USP7 (with a 1 hour incubation period), prior to the addition of the substrate and the initiation of the reaction period. Percentage inhibition values were calculated relative to a no enzyme control and a uninhibited enzyme control. Curve fitting and IC50 calculations were carried out using Genedata Screener software.

In the case of `CCc1c(-c2ccc3[nH]ncc3c2)cnc(N)c1-c1ccc(O)cc1` [Compound 88, 4-[2-amino-4-ethyl-5-(1H-indazol-5-yl)-3-pyridyl]phenol], the IC50 was 0.98 µM on USP7 and 18.6 µM against USP5. The “selectivity of antagonism of USP7 catalytic activity over the DUBs evaluated” value on USP7 (conclusion from Table 2 (USP7, USP7 cat, USP47, USP5)) is “selective antagonists of USP7 catalytic activity”. In addition, in test [1], the “cell viability (Incucyte proliferation and caspase activity)” value was “decreases cell viability”.
